Results from ChEMBL document CHEMBL3600303, “The N-Terminal T-T Motif of a Third-Generation HIV-1 Fusion Inhibitor Is Not Required for Binding Affinity and Antiviral Activity” (J Med Chem, 2015).
pIC50: −log10 of the molar value.

Tests used:
[1] = biological target: Envelope glycoprotein gp160 (Human immunodeficiency virus type 1 group M subtype B (isolate HXB2)(HIV-1)) (UniProt P04578); assay: Binding affinity to HIV-1 HXB2 gp41 N-terminal heptad repeat assessed as thermostability of compound after 30 mins by CD spectroscopic analysis; conditions: Human immunodeficiency virus 1
[2] = tested on: Human immunodeficiency virus 1; assay: Antiviral activity against HIV1 NL4-3 pseudovirus infected in human TZM-bl cells assessed as inhibition of viral entry into cells after 48 hrs by single-cycle infection assay; type: functional, organism-based; conditions: Human immunodeficiency virus 1, NL4-3, TZM-bl
[3] = biological target: Envelope glycoprotein gp160 (Human immunodeficiency virus type 1 group M subtype B (isolate HXB2)(HIV-1)) (UniProt P04578); assay: Binding affinity to HIV-1 HXB2 gp41 N-terminal heptad repeat assessed as thermostability of compound at 10 uM after 30 mins by CD spectroscopic analysis; conditions: Human immunodeficiency virus 1
[4] = tested on: Human immunodeficiency virus 1; assay: Antiviral activity against wild type HIV1 NL4-3 infected in human TZM-bl cells assessed as inhibition of viral replication after 2 days by luciferase reporter gene assay; type: functional, organism-based; conditions: Human immunodeficiency virus 1, NL4-3, TZM-bl, 48 h

| Substance | Tm [1] [°C] | pIC50 [2] | Tm [3] [°C] | pIC50 [4] |
| --- | --- | --- | --- | --- |
| H-TTWEAWDRAIAEYAARIEALIR-OH | 59.1 | 6.02 |  |  |
| H-TTWEEWDKKIEEYTKKIEELI-OH |  | 7.72 | 66.2 | 7.76 |
